Values joined by “and” are separate entries in the source; they are usually repeats but may differ in a detail not shown here. Equal entries are not always repeated. Where two headings read alike, the source gives them in different places.
How the values were obtained:
[1] = Stability in plasma, ferret; format: in vitro ADME; conditions: incubation of BXM; for % Residual in plasma (BXA, calculated from BXM concentration at 0 min as molar concentration): mean of duplicate; for % Residual in plasma Individual value (BXA, from BXM concentration at 0 minutes as molar concentration): duplicates
Method: (§1) Approximately 30 mL of blood from Japanese male healthy volunteers was collected and centrifuged to obtain plasma. Blood samples from ferrets, rats, dogs, and monkeys were collected under anesthesia and centrifuged to obtain plasma. BXM was added to reach a final concentration of 200 ng/mL to all pooled plasma samples per species. After incubation for 5, 15, and 30 minutes at 37°C, twofold volume of ice‐cold acetonitrile/methanol (1:1, v/v) was added to the plasma samples to stop further reactions, which were then centrifuged at 1800 g for 10 minutes prior to LC‐MS/MS analysis of BXM in the supernatants.

[2] = Stability in plasma, monkey; format: in vitro ADME; conditions: incubation of BXM; for % Residual in plasma (BXA, calculated from BXM concentration at 0 min as molar concentration): mean of duplicate; for % Residual in plasma Individual value (BXA, from BXM concentration at 0 minutes as molar concentration): duplicates
Method: as §1

[3] = set-up: method as in Koshimichi et al., J Pharm Sci 2019;108:1896–1904; conditions: Japanese patients, ref Koshimichi et al., J Pharm Sci 2019;108:1896–1904, cited from earlier work
[4] = Stability in plasma, human; format: in vitro ADME; conditions: incubation of BXM; for % Residual in plasma (BXA, calculated from BXM concentration at 0 min as molar concentration): mean of duplicate; for % Residual in plasma Individual value (BXA, from BXM concentration at 0 minutes as molar concentration): duplicates
Method: as §1

Stability in plasma, rat = format: in vitro ADME; conditions: incubation of BXM; for % Residual in plasma (BXA, calculated from BXM concentration at 0 min as molar concentration): mean of duplicate; for % Residual in plasma Individual value (BXA, from BXM concentration at 0 minutes as molar concentration): duplicates
Method: as §1

Stability in plasma, dog = format: in vitro ADME; conditions: incubation of BXM; for % Residual in plasma (BXA, calculated from BXM concentration at 0 min as molar concentration): mean of duplicate; for % Residual in plasma Individual value (BXA, from BXM concentration at 0 minutes as molar concentration): duplicates
Method: as §1

[5] = Pharmacokinetic analysis in ferrets after a single oral administration of BXM; format: in vivo, ferret
Method: One day prior to administration, group assignment was carried out taking body weight into account. Under isoflurane anesthesia, fasted ferrets (four per group) received BXM (10 or 30 mg/5 mL/kg) suspension orally using an intragastric tube. Blood samples were collected at 0.5, 1, 2, 4, 6, 8, and 24 hours after single oral administration of BXM and centrifuged to obtain plasma. The concentrations of BXA and BXM in plasma were determined by liquid chromatography‐tandem mass spectrometry (LC‐MS/MS). The lower limit of quantification of BXA and BXM in ferret plasma was 0.5 ng/mL. The pharmacokinetic parameters of BXA and BXM were calculated using non‐compartmental analysis module in Phoenix WinNonlin software (version 8.0; Certara LP) (https://onlinehelp.certara.com/phoenix/8.2/topics/nca.htm) based on a non‐compartment model analysis with uniform weighting.

[6] = 5% SDS water vs 0.5% MC, BXM 10 mg/kg
[7] = single oral BXM 10 mg/kg, 0.5% MC vehicle, mean of three ferrets
[8] = single oral BXM 10 mg/kg, 5% SDS water vehicle, mean of four ferrets
[9] = single oral BXM 10 mg/kg, individual ferrets (Ferret-01 to Ferret-04)
[10] = single oral BXM 10 mg/kg, mean of four ferrets
[11] = single oral BXM 30 mg/kg, 5% SDS water vehicle, mean of four ferrets
[12] = single oral BXM 30 mg/kg, individual ferrets (Ferret-05 to Ferret-08)
[13] = single oral BXM 30 mg/kg, mean of four ferrets

Compound: O=C1c2c(O)c(=O)ccn2N([C@@H]2c3ccccc3SCc3c2ccc(F)c3F)[C@@H]2COCCN12 [BXA, baloxavir acid]
- % Residual in plasma (BXA, calculated from BXM concentration at 0 min as molar concentration) ([1]; 10 min): 4.6%
- % Residual in plasma Individual value (BXA, from BXM concentration at 0 minutes as molar concentration) ([1]; 10 minutes): 4.6% and 4.7%
- % Residual in plasma (BXA, calculated from BXM concentration at 0 min as molar concentration) ([1]; 20 min): 13.9%
- % Residual in plasma Individual value (BXA, from BXM concentration at 0 minutes as molar concentration) ([1]; 20 minutes): 13.8% and 14.1%
- % Residual in plasma (BXA, calculated from BXM concentration at 0 min as molar concentration) ([1]; 30 min): 24.9%
- % Residual in plasma Individual value (BXA, from BXM concentration at 0 minutes as molar concentration) ([1]; 30 minutes): 24.9% and 25.0%
- % Residual in plasma (BXA, calculated from BXM concentration at 0 min as molar concentration) ([2]; 10 min): 9.0%
- % Residual in plasma Individual value (BXA, from BXM concentration at 0 minutes as molar concentration) ([2]; 10 minutes): 8.9% and 9.1%
- % Residual in plasma (BXA, calculated from BXM concentration at 0 min as molar concentration) ([2]; 20 min): 24.0%
- % Residual in plasma Individual value (BXA, from BXM concentration at 0 minutes as molar concentration) ([2]; 20 minutes): 23.5% and 24.6%
- % Residual in plasma (BXA, calculated from BXM concentration at 0 min as molar concentration) ([2]; 30 min): 43.0%
- % Residual in plasma Individual value (BXA, from BXM concentration at 0 minutes as molar concentration) ([2]; 30 minutes): 44.0% and 42.1%
- plasma concentration at 24 hours ([3]; BXM 10 mg): 15.1 (range 6.38‐29.0) ng/mL
- plasma concentration at 24 hours ([3]; BXM 40 mg): 61.5 (range 27.9‐118) ng/mL
- % Residual in plasma (BXA, calculated from BXM concentration at 0 min as molar concentration) ([4]; 10 min): 8.3%
- % Residual in plasma Individual value (BXA, from BXM concentration at 0 minutes as molar concentration) ([4]; 10 minutes): 8.4% and 8.3%
- % Residual in plasma (BXA, calculated from BXM concentration at 0 min as molar concentration) ([4]; 20 min): 22.4%
- % Residual in plasma Individual value (BXA, from BXM concentration at 0 minutes as molar concentration) ([4]; 20 minutes): 22.4%
- % Residual in plasma (BXA, calculated from BXM concentration at 0 min as molar concentration) ([4]; 30 min): 38.1%
- % Residual in plasma Individual value (BXA, from BXM concentration at 0 minutes as molar concentration) ([4]; 30 minutes): 38.4% and 37.8%
- % Residual in plasma (BXA, calculated from BXM concentration at 0 min as molar concentration) (Stability in plasma, rat; 10 min): 104.6%
- % Residual in plasma Individual value (BXA, from BXM concentration at 0 minutes as molar concentration) (Stability in plasma, rat; 10 minutes): 102.8% and 106.3%
- % Residual in plasma (BXA, calculated from BXM concentration at 0 min as molar concentration) (Stability in plasma, rat; 20 min): 104.0%
- % Residual in plasma Individual value (BXA, from BXM concentration at 0 minutes as molar concentration) (Stability in plasma, rat; 20 minutes): 102.2% and 105.9%
- % Residual in plasma (BXA, calculated from BXM concentration at 0 min as molar concentration) (Stability in plasma, rat; 30 min): 103.2%
- % Residual in plasma Individual value (BXA, from BXM concentration at 0 minutes as molar concentration) (Stability in plasma, rat; 30 minutes): 103.0% and 103.4%
- % Residual in plasma (BXA, calculated from BXM concentration at 0 min as molar concentration) (Stability in plasma, dog; 10 min): 2.8%
- % Residual in plasma Individual value (BXA, from BXM concentration at 0 minutes as molar concentration) (Stability in plasma, dog; 10 minutes): 2.8%
- % Residual in plasma (BXA, calculated from BXM concentration at 0 min as molar concentration) (Stability in plasma, dog; 20 min): 8.2%
- % Residual in plasma Individual value (BXA, from BXM concentration at 0 minutes as molar concentration) (Stability in plasma, dog; 20 minutes): 8.1% and 8.2%
- % Residual in plasma (BXA, calculated from BXM concentration at 0 min as molar concentration) (Stability in plasma, dog; 30 min): 15.6%
- % Residual in plasma Individual value (BXA, from BXM concentration at 0 minutes as molar concentration) (Stability in plasma, dog; 30 minutes): 15.6%
- AUC0-24hr, Ratio to 0.5% MC [5, 6]: 7.0
- C24hr, Ratio to 0.5% MC [5, 6]: 13.6
- Cmax, Ratio to 0.5% MC [5, 6]: 4.2
- T1/2, Ratio to 0.5% MC [5, 6]: 1.5
- Tmax, Ratio to 0.5% MC [5, 6]: 3.0
- AUC0-24hr [5, 7]: 60.2 ng·h/mL
- C24hr [5, 7]: 0.223 ng/mL
- Cmax [5, 7]: 15.8 ng/mL
- T1/2 [5, 7]: 4.60 h
- Tmax [5, 7]: 0.50 h
- AUC0-24 h [5, 8]: 421 ± 119 ng·h/mL
- C 24 h [5, 8]: 3.03 ± 2.33 ng/mL and 3.03 ng/mL
- C max [5, 8]: 66.6 ± 14.6 ng/mL
- T 1/2 (terminal elimination half-life) [5, 8]: 6.91 ± 3.79 h
- T max [5, 8]: 1.50 ± 0.58 h
- AUC0-24hr, individual data [5, 9]: 292 ng·h/mL and 576 ng·h/mL and 439 ng·h/mL and 378 ng·h/mL
- C24hr, individual data [5, 9]: 0.792 ng/mL and 3.90 ng/mL and 1.52 ng/mL and 5.90 ng/mL
- Cmax, individual data [5, 9]: 59.4 ng/mL and 80.1 ng/mL and 77.3 ng/mL and 49.5 ng/mL
- T1/2, individual data [5, 9]: 4.21 h and 6.47 h and 4.57 h and 12.4 h
- Tmax, individual data [5, 9]: 1.00 hr (2×) and 2.00 hr (2×)
- AUC0-24 h [5, 10]: 0.871 ± 0.246 µM·h
- C 24 h [5, 10]: 6.26 ± 4.82 nM
- Cmax ([5]; single oral BXM 10 mg/kg, mean of four ferrets, read-out: C max): 138 ± 30 nM
- AUC0-24 h [5, 11]: 3240 ± 3240 ng·h/mL
- C 24 h [5, 11]: 9.91 ± 8.77 ng/mL and 9.91 ng/mL
- C max [5, 11]: 365 ± 316 ng/mL
- T 1/2 (terminal elimination half-life) [5, 11]: 4.44 ± 0.67 h
- T max [5, 11]: 2.00 ± 1.41 h
- AUC0-24hr, individual data [5, 12]: 7580 ng·h/mL and 3840 ng·h/mL and 1040 ng·h/mL and 508 ng·h/mL
- C24hr, individual data [5, 12]: 21.3 ng/mL and 12.3 ng/mL and 3.38 ng/mL and 2.64 ng/mL
- Cmax, individual data [5, 12]: 754 ng/mL and 489 ng/mL and 128 ng/mL and 89.6 ng/mL
- T1/2, individual data [5, 12]: 3.90 h and 4.32 h and 4.12 h and 5.41 h
- Tmax, individual data [5, 12]: 1.00 hr (2×) and 4.00 hr and 2.00 hr
- AUC0-24 h [5, 13]: 6.71 ± 6.71 µM·h
- C 24 h [5, 13]: 20.5 ± 18.2 nM
- Cmax ([5]; single oral BXM 30 mg/kg, mean of four ferrets, read-out: C max): 755 ± 653 nM

Source: publication PMC7578299, “The antiviral effects of baloxavir marboxil against influenza A virus infection in ferrets” (Influenza and Other Respiratory Viruses, 2020)
